This passage reports IC50 results from patent US20260217704A1, “INDOLONE DERIVATIVE HAVING IRAK4 INHIBITORY ACTIVITY, AND PREPARATION METHOD THEREFOR AND USE THEREOF” (DOVETREE MEDICINES UNUS, INC., priority 2023, published 2026).

The target of the assay is T1, IRAK4 kinase protein (Homo sapiens, UniProt Q9NWZ3).
T1 sequence (Q9NWZ3 1-460): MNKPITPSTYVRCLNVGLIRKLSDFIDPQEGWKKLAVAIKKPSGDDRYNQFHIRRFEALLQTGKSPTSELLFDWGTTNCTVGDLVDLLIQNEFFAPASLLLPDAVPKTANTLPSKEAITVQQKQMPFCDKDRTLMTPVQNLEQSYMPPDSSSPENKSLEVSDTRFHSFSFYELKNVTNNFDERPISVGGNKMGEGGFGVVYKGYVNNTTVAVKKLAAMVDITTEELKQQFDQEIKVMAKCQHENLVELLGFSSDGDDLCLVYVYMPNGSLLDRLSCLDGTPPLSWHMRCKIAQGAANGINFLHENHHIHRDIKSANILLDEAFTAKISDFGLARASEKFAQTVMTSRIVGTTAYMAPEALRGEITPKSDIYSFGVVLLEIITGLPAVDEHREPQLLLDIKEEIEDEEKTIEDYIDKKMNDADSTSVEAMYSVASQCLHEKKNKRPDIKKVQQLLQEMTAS
The assay can be described thus: IRAK4 kinase inhibition assay (Cisbio HTRF KinEASE-STK S1 kit). To be noted: IRAK4 10 nM, ATP 200 μM, 37° C. 2 hours, read-out: IRAK4 inhibitory activity IC50. Format: biochemical. The protocol: Cisbio HTRF KinEASE-STK SI kit (62S1PEB) was used in this experiment. The experiment/detection buffer, STK Substrate 1-biotin, Streptavidin-XL665, and STK Antibody-Crypatete were all contained in the kit.
The compound/DMSO was added to a 384 plate (PerkinElmer 6008280) using Echo 665. Subsequently, 5 μL of IRAK4 kinase protein dissolved in an experimental buffer [1 volume of 5×kinase buffer+20 mM magnesium chloride (Sigma) solution+1 mM DTT (Alfa Aesar) solution+4 volumes of deionized water] at 2 folds reaction concentration was added (final concentration: 10 nM). The shallow well plate was sealed, shaken, and then centrifuged at 1000 rpm for 1 minute and incubated at room temperature for 5 minutes. 5 μL of a 1:1 mixture of STK Substrate 1-biotin (final concentration: 1 μM) and ATP (Sigma A1852) (final concentration: 200 μM) at 2 folds reaction concentration prepared with the experimental buffer was then added. The shallow well plate was sealed, shaken, then centrifuged at 1000 rpm for 1 minute, and incubated at 37° C. for 2 hours. Subsequently, 10 μL of a 1:1 mixed solution of Streptavidin-XL665 (final concentration: 62.5 nM) and STK-antibody-cryptate dissolved with the detection buffer was added. The shallow well plate was sealed, shaken, then centrifuged at 1000 rpm for 1 minute, and incubated at room temperature for 1 hour. Subsequently, numerical values were read at the wavelength of 620 nm/665 nm by a microplate reader. The data were analyzed by Prism 9.3 software, and the IC50 value of IRAK4 kinase inhibition was fitted by four-parameter Logistic equation. After detection, the compound of the present disclosure has a better IRAK4 kinase inhibitory activity.
(In general: Time-resolved FRET reads energy transfer from a long-lived donor to a nearby acceptor.)
As usually defined, the IC50 is the concentration needed to halve the response being measured. Regarding `O=C1Nc2ccc(S(=O)(=O)Nc3ccc(F)cc3)cc2/C1=C/Nc1cn(C2CCCCC2)nc1C(F)F` [Compound 5], the IC50 is below 100 nM.

Take `O=C1Nc2ccc(S(=O)(=O)Nc3ccc(F)cc3)cc2/C1=C/c1cc2ccc(N3CCNCC3)cc2[nH]1` [Compound 7]: the IC50 was below 100 nM.

Turning to `O=C1Nc2ccc(S(=O)(=O)Nc3ccc(F)cc3)cc2/C1=C/Nc1cnn2cc(N3CCNCC3)ccc12` [Compound 6], the IC50 is 500 to 1000 nM.

As to `Cc1c(/C=C2\C(=O)Nc3ccc(S(=O)(=O)Nc4ccc(F)cc4)cc32)[nH]c2cc(N3CCNCC3)ccc12` [Compound 8], the IC50 was below 100 nM.

On to `CCNS(=O)(=O)c1ccc2c(c1)/C(=C\c1cc3cc(N4CCNCC4)ccc3o1)C(=O)N2` [Compound 4], for which the IC50 is 100 to 500 nM.

Regarding `O=C1Nc2ccc(S(=O)(=O)Nc3ccc(F)cc3)cc2/C1=C\c1cc2cc(N3CCNCC3)ccc2o1` [Compound 3], the IC50 was below 100 nM.

For `Cc1ccc(/C=C2/C(=O)Nc3ccc(S(=O)(=O)Nc4ccc(F)cc4)cc32)o1` [Compound 1], the IC50 was above 1000 nM.

`O=C1Nc2ccc(S(=O)(=O)Nc3ccc(F)cc3)cc2/C1=C/c1cn(C2CCCCC2)nc1C(F)F` [Compound 2]: the IC50 fell in the range of 100 to 500 nM.
